Laboratory results: patent US20130130992A1, “DIPEPTIDE DERIVATIVE FOR THE TREATMENT OF CANCER” (ONCOTEST GMBH, priority 2010, published 2013)
Several values for one entry are separate records, joined by “and”; a condition that tells them apart may be missing. Equal values may be shown once. Read-outs that look alike come from different tables or passages of the source.

How the values were obtained:
Format in all cases: cell-based
RXF 393NL = experiment: Monolayer propidium iodide assay, RXF 393NL; details: Homo sapiens, 96 h, Renal, 4 days of treatment
Description: (§1) Oncotest GmbH, Germany's proprietary tumor cell line panel comprises 40 cell lines. These cell lines were derived from 15 different tumor histotypes, each represented by 1 to 6 different cell lines. Cell lines were established from cancer of the bladder (3), colon (4), head and neck (1), lung (6), breast (3), pancreas (3), prostate (4), ovary (2), kidney (3), liver (1), stomach (1) and the uteri body (1), as well as from melanoma (3), sarcoma (2) and pleuramesothelioma (3). Out of these 40 cell lines, 24 cell lines were established at Oncotest, from patient-derived tumor xenografts. […]
(§2) Stock solutions of the compound of formula (1) (3.3 mM in DMSO) were prepared and stored in small aliquots (200 μl) at −20° C. […] Each concentration was evaluated in triplicate. […]
(§3) Cells were plated in 96-well flat-bottom microtiter plates at a cell density of 4,000 to 20,000 cells/well. […] After an incubation period of 1-2 hours at room temperature, fluorescence (FU) was measured using the Cytofluor 4000 microplate reader (excitation λ=530 nm, emission λ=620 nm) to quantify the amount of attached viable cells. […] Based on the T/C values, relative IC50 values were determined by non-linear regression (log [conc. of inhibitor] versus response (% T/C)) using the GraphPad Prism® analysis software (Prism 5 for Windows, version 5.01, GraphPad Software Inc., CA). […]

CXF HCT 116 = experiment: Monolayer propidium iodide assay, CXF HCT 116; details: Homo sapiens, 96 h; CXF HCT 116, Colon; 4 days of treatment
Description: as §1, §2, §3

BXF T 24 = experiment: Monolayer propidium iodide assay, BXF T 24; details: Homo sapiens, 96 h; BXF T 24, Bladder; 4 days of treatment
Description: as §1, §2, §3

CXF 269L = experiment: Monolayer propidium iodide assay, CXF 269L; details: Homo sapiens, 96 h, Colon, 4 days of treatment
Description: as §1, §2, §3

PAXF 1657L = experiment: Monolayer propidium iodide assay, PAXF 1657L; details: Homo sapiens, 96 h, Pancreas, 4 days of treatment
Description: as §1, §2, §3

LXFL 529L = experiment: Monolayer propidium iodide assay, LXFL 529L; details: Homo sapiens, 96 h, Lung, 4 days of treatment
Description: as §1, §2, §3

PAXF PANC 1 = experiment: Monolayer propidium iodide assay, PAXF PANC 1; details: Homo sapiens, 96 h; PAXF PANC 1, Pancreas; 4 days of treatment
Description: as §1, §2, §3

PAXF 546L = experiment: Monolayer propidium iodide assay, PAXF 546L; details: Homo sapiens, 96 h, Pancreas, 4 days of treatment
Description: as §1, §2, §3

LXFA 629L = experiment: Monolayer propidium iodide assay, LXFA 629L; details: Homo sapiens, 96 h, Lung, 4 days of treatment
Description: as §1, §2, §3

UXF 1138L = experiment: Monolayer propidium iodide assay, UXF 1138L; details: Homo sapiens, 96 h, Uterus, 4 days of treatment
Description: as §1, §2, §3

PRXF LNCAP = experiment: Monolayer propidium iodide assay, PRXF LNCAP; details: Homo sapiens, 96 h, Prostate, 4 days of treatment
Description: as §1, §2, §3

BXF 1218L = experiment: Monolayer propidium iodide assay, BXF 1218L; details: Homo sapiens, 96 h, Bladder, 4 days of treatment
Description: as §1, §2, §3

LXFA 526L = experiment: Monolayer propidium iodide assay, LXFA 526L; details: Homo sapiens, 96 h, Lung, 4 days of treatment
Description: as §1, §2, §3

SXF SAOS2 = experiment: Monolayer propidium iodide assay, SXF SAOS2; details: Homo sapiens, SAOS-2, 96 h; SXF SAOS2, Sarcoma; 4 days of treatment
Description: as §1, §2, §3

[1] = system: panel of 40 human tumor cell lines; experiment: Monolayer propidium iodide assay, whole panel; details: for IC50: Homo sapiens
Description: Oncotest GmbH, Germany's proprietary tumor cell line panel comprises 40 cell lines. These cell lines were derived from 15 different tumor histotypes, each represented by 1 to 6 different cell lines. Cell lines were established from cancer of the bladder (3), colon (4), head and neck (1), lung (6), breast (3), pancreas (3), prostate (4), ovary (2), kidney (3), liver (1), stomach (1) and the uteri body (1), as well as from melanoma (3), sarcoma (2) and pleuramesothelioma (3). Out of these 40 cell lines, 24 cell lines were established at Oncotest, from patient-derived tumor xenografts. The other 16 cell lines were either provided by the NCl (Bethesda; MD, USA) or were purchased from ATCC (Rockville, Md., USA) or DSMZ (Braunschweig, Germany).
Cell lines were routinely passaged once or twice weekly and maintained in culture for upto 20 passages. All the cells were grown at 37° C. in a humidified atmosphere with 5% (Carbon Dioxide) CO2 in RPMI 1640 medium supplemented with 10% (v/v) fetal calf serum (FCS) and 0.1 mg/ml gentamicin (medium and all other components from PAA, Colbe, Germany). Authenticity of all cell lines was proven by STR (short tandem repeat) analysis, a PCR based DNA-fingerprinting methodology.
Stock solutions of the compound of formula (1) (3.3 mM in DMSO) were prepared and stored in small aliquots (200 μl) at −20° C. An aliquot of the stock solution was thawed on the day of use and stored at room temperature prior to and during dosing. The subsequent dilutions were done with complete RPMI 1640 cell culture medium as follows: the stock solution was diluted 1:22 followed by serial dilutions finally resulting in a (compared to the test concentration) 15-fold higher concentration. For the final dilution step (1:15), 10 μl/well of the solution was directly added to 140 μl/well culture medium. Compound of formula (1) [also referred as test compound] was tested at 0.00032, 0.001, 0.0032, 0.01, 0.032, 0.1, 0.32, 1, 3.2 and 10 μM. Each concentration was evaluated in triplicate.
A modified Propidium Iodide assay was used to assess the effect of the compound of formula (1) on the growth of the human tumor cell lines and was designed as in reference, Anti-cancer Drugs, 6, 522-532, (1995), the disclosure of which is incorporated by reference for the teaching of the assay.
Cells were plated in 96-well flat-bottom microtiter plates at a cell density of 4,000 to 20,000 cells/well. After a 24 hr recovery period to allow the cells to resume exponential growth, the compound of formula (1) was applied at 10 concentrations in half-log increments in triplicates and treatment continued for 4 days. After 4 days of treatment, cells were next washed with 200 μl phosphate buffer solution (PBS) to remove dead cells, then 200 μl of a solution containing 7 μg/ml propidium iodide (PI) and 0.1% (v/v) Triton X-100 were added to the wells. After an incubation period of 1-2 hours at room temperature, fluorescence (FU) was measured using the Cytofluor 4000 microplate reader (excitation λ=530 nm, emission λ=620 nm) to quantify the amount of attached viable cells. Pharmacological effects on cell proliferation and survival were expressed as Test/Control×100 (% T/C) values, with T and C representing the fluorescence read-outs for wells with and without test compound, respectively, i.e. T/C represents the ratio of viable cell numbers following incubation of cell line with and without test compound. Based on the T/C values, relative IC50 values were determined by non-linear regression (log [conc. of inhibitor] versus response (% T/C)) using the GraphPad Prism® analysis software (Prism 5 for Windows, version 5.01, GraphPad Software Inc., CA). For calculation of mean IC50 values over the 40 cell lines as tested, the geometric mean was selected. If Graph Pad Prism could not calculate reliable IC50 values by non-linear regression, the IC50 value was estimated by visual inspection of the concentration-effect curve.

CCCC1CCCCCC(O)CC(=O)NC2CSSCC(NC2=O)C(=O)O1 (stereo not shown) [compound of formula (1)]
IC50 (RXF 393NL): 323 nM
IC50 (CXF HCT 116): 48 nM
IC50 (BXF T 24): 50 nM
IC50 (CXF 269L): 55 nM
IC50 (PAXF 1657L): 39 nM
IC50 (LXFL 529L): 50 nM
IC50 (PAXF PANC 1): 59 nM
IC50 (PAXF 546L): 16 nM
IC50 (LXFA 629L): 40 nM
IC50 (UXF 1138L): 126 nM
IC50 (PRXF LNCAP): 122 nM
IC50 (BXF 1218L): 46 nM
IC50 (LXFA 526L): 21 nM
IC50 (SXF SAOS2): 185 nM
antitumor activity in all cell lines as tested ([1]; 0.00032 to 10 μM, 40 cell lines, 15 histotypes): concentration-dependent antitumor activity
Tumor selectivity: number of cell lines with individual IC50 < mean IC50 ([1]; Bladder): 2 out of 3 and 2/3
Tumor selectivity: number of cell lines with individual IC50 < mean IC50 ([1]; Breast): 1/3
Tumor selectivity: number of cell lines with individual IC50 < mean IC50 ([1]; Colon): 3/4
IC50 ([1]; 3/3 pancreatic tumor cell lines, read-out: individual IC50, pancreatic tumor cell lines): < 60 nM
IC50 ([1]; 5/6 cell lines derived from lung carcinoma, read-out: individual IC50, lung carcinoma cell lines): < 50 nM
IC50 ([1]; geometric mean over the 40 cell lines, read-out: Mean IC50): 89 nM
IC50 ([1]; upper bound for every cell line of the panel, read-out: IC50 achieved for all the 40 cell lines): < 330 nM
Tumor selectivity: number of cell lines with individual IC50 < mean IC50 ([1]; Kidney): 0/3
Tumor selectivity: number of cell lines with individual IC50 < mean IC50 ([1]; Lung): 5/6
Tumor selectivity: number of cell lines with individual IC50 < mean IC50 ([1]; Melanoma): 0/3
Tumor selectivity: number of cell lines with individual IC50 < mean IC50 ([1]; Pancreas): 3/3
Tumor selectivity: number of cell lines with individual IC50 < mean IC50 ([1]; Pleurameso): 1/3
Tumor selectivity: number of cell lines with individual IC50 < mean IC50 ([1]; Prostate): 2/4
